pEC50: −log10 of the molar value.

For the experiment, the target named is IRE1a (Homo sapiens, UniProt O75460). Briefly: IRE1a Endoribonuclease Nanoluciferase Assay (XBP1 luciferase reporter in 293T cells). Conditions: XBP1 nanoluciferase reporter in 293T cells, ER stressor; tested as the salt named. Details: endogenous in cells; host or cells: 293T. The format is cell-based. The procedure: Compounds disclosed herein were assessed for disruption of IRE1 signaling using a IRE1a Endoribonuclease Nanoluciferase Assay. […] About 24 hours later, the cells were transfected with Effectene. In a 15 mL tube, the following was added: 2 ug XBP1 luciferase reporter plasmid (PGK-Luc2-P2A-XBP1u-Nanoluciferase-PEST); 300 ul EC buffer; and 16 ul Enhancer, followed by incubation at room temp for 5 minutes. […] 2.6 mL cDMEM media was added. Old media was aspirated from the cells, followed by addition of 7 mL fresh media. Full transfection mixture was added dropwise to cells. Cells were incubated for 6 hours, followed by trypsinization, centrifugation and resuspension in 11 mL fresh cDMEM media. 100 μL of cells were plated per a well in a 96 well plate. A day later, ER stressors of choice +/− inhibitors were added. To harvest, media was aspirated from cells completely, then 50 uL 1× passive lysis buffer (Promega: E1941) was added per well and put on shaker (300 rpm) for 30 minutes at room temperature. […] 15 uL OneGlo (nanoluciferase kit, Promega N1630) was added. Plates were spun down, placed on shaker (300 rpm) for 10 minutes. Plates were read on luminometer, 1000 ms integration time per well. 15 uL Stop and Glo (nanoluciferase kit) was added. Plates were spun down, placed on shaker (300 rpm) for 10 minutes. Plates were read on luminometer, 1000 ms second integration time per well.
Chain of IRE1a (O75460 19-977): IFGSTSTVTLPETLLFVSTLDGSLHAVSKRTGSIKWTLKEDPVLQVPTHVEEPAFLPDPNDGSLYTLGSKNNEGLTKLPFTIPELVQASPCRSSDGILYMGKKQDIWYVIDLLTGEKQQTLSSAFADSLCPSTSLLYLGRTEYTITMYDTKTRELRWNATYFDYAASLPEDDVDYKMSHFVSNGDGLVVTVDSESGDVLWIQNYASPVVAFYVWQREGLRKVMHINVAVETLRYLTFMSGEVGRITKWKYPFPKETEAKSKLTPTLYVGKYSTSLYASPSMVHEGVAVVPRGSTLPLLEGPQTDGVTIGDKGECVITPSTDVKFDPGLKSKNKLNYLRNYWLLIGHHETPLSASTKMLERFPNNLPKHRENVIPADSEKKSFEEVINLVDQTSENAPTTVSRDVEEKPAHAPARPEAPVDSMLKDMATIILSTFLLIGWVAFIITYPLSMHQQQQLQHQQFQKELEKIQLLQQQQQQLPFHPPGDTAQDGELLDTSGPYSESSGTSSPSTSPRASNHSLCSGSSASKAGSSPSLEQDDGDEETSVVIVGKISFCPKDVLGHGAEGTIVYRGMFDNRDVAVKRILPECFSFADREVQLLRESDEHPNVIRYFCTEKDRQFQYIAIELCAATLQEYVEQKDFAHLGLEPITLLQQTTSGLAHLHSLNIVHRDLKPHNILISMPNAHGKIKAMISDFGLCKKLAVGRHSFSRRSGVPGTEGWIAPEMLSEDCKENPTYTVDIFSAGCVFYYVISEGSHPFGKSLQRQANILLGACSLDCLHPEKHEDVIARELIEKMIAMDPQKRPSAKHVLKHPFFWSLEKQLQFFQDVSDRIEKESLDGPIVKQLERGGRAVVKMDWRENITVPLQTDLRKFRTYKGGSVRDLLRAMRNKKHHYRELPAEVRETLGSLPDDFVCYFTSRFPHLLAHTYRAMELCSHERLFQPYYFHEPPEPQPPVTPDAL
For the compound `CCc1cc(-c2cc(OC)c(NS(=O)(=O)c3ccccc3Cl)nn2)cc2cnc(N[C@H]3CC[C@H](N)CC3)nc12` [Compound 66, N-(6-(2-(((1r,4r)-4-aminocyclohexyl)amino)-8-ethylquinazolin-6-yl)-4-methoxypyridazin-3-yl)-2-chlorobenzene-sulfonamide], the negative logarithm of the EC50 (pEC50) was 7.00 to 7.30. The value for `CCc1cc(-c2nnc(NS(=O)(=O)c3ccccc3Cl)cc2C)cc2cnc(N[C@H]3CC[C@H](N)CC3)nc12` [Compound 67, N-(6-(2-(((lr,4r)-4-aminocyclohexyl)amino)-8-ethylquinazolin-6-yl)-5-methylpyridazin-3-yl)-2-chlorobenzene-sulfonamide] was 7.30 to 8.30. With `Cc1nc(NS(=O)(=O)c2ccccc2Cl)ncc1-c1ccc2nc(N[C@H]3CC[C@H](N)CC3)ncc2c1` [Compound 68, N-(5-(2-(((1r,4r)-4-aminocyclohexyl)amino)quinazolin-6-yl)-4-methylpyrimidin-2-yl)-2-chlorobenzene-sulfonamide], the negative logarithm of the EC50 (pEC50) is 7.00 to 7.30.

Regarding `CCc1cc(-c2ccc(NS(=O)(=O)c3ccccc3Cl)c(F)c2)cc2cnc(N[C@H]3CC[C@H](N(C)C)CC3)nc12` [Compound 69], the negative-log EC50 (pEC50) was more than 8.30. In the case of `CCc1cc(-c2ccc(NS(=O)(=O)c3ccccc3Cl)c(F)c2C)cc2cnc(N[C@H]3CC[C@H](N)CC3)nc12` [Compound 71, N-(4-(2-(((1r,4r)-4-aminocyclohexyl)amino)-8-ethylquinazolin-6-yl)-2-flouro-3-methylphenyl)-2-chlorobenzene-sulfonamide] it was more than 8.30; in that of `CCc1cc(-c2ccc(NS(=O)(=O)c3ccccc3Cl)c(F)c2)cc2cnc(N[C@@H]3CCC[C@H](N)C3)nc12` [Compound 72, N-(4-(2-(((1R,3S)-3-aminocyclohexyl)amino)-8-ethylquinazolin-6-yl)-2-fluorophenyl)-2-chlorobenzene-sulfonamide], 5.00 to 7.00; in that of `CCc1cc(-c2ccc(NS(=O)(=O)c3ccccc3Cl)c(F)c2)cc2cnc(N[C@@H]3CC[C@@H](N)[C@H](C)C3)nc12` [Compound 74], more than 8.30. The value for `N[C@H]1CCC[C@@H](Nc2ncc3cc(-c4ccc(NS(=O)(=O)c5ccccc5Cl)c(F)c4)ccc3n2)C1` [Compound 75] was 5.00 to 7.00. In the case of `O=S(=O)(Nc1ccc(-c2ccc3nc(N[C@H]4CCCNC4)ncc3c2)cc1F)c1ccccc1Cl` [Compound 76, (S)-2-chloro-N-(2-fluoro-4-(2-(piperidin-3-ylamino)quinazolin-6-yl)phenyl) benzene-sulfonamide] it was 7.30 to 8.30.

Take `N[C@@H]1CC[C@@H](Nc2ncc3cc(-c4ccc(NS(=O)(=O)c5ccccc5Cl)c(F)c4)ccc3n2)C1` [Compound 77, N-(4-(2-(((1R,3R)-3-aminocyclopentyl)amino)quinazolin-6-yl)-2-fluorophenyl)-2-chlorobenzene-sulfonamide]: the pEC50 is 7.30 to 8.30. In the case of `CCc1cc(-c2ccc(NS(=O)(=O)c3ccccc3Cl)c(F)c2)cc2cnc(N[C@@H]3CC[C@@H](N)C3)nc12` [Compound 78] it was more than 8.30; in that of `CCc1cc(-c2ccc(NS(=O)(=O)c3ccccc3Cl)c(F)c2)cc2cnc(N[C@@H]3CC[C@H](N)C3)nc12` [Compound 79, N-(4-(2-(((1R,3S)-3-aminocyclopentyl)amino)-8-ethylquinazolin-6-yl)-2-fluorophenyl)-2-chlorobenzene-sulfonamide], 7.30 to 8.30. In the case of `NC12CCC(Nc3ncc4cc(-c5ccc(NS(=O)(=O)c6ccccc6Cl)c(F)c5)ccc4n3)(CC1)CC2` [Compound 81, N-(4-(2-((4-aminobicyclo[2.2. 2]octan-1-yl)amino)quinazolin-6-yl)-2-fluorophenyl)-2-chlorobenzene-sulfonamide] it was more than 8.30; in that of `CCc1cc(-c2ccc(NS(=O)(=O)c3ccccc3Cl)c(F)c2)cc2cnc(N[C@H]3CC4C[C@H](N)CC4C3)nc12` (some centres unmarked) [Compound 82], 7.30 to 8.30; in that of `CCc1cc(-c2ccc(NS(=O)(=O)c3ccccc3Cl)c(F)c2)cc2cnc(N[C@H]3CC4C[C@H](N)CC4C3)nc12` (some centres unmarked) [Compound 83, N-(4-(2-(((2r,5r)-5-aminoocta-hydropentalen-2-yl)amino)-8-ethylquinazolin-6-yl)-2-fluorophenyl)-2-chlorobenzene-sulfonamide], 7.00 to 7.30.

For the compound `CCc1cc(-c2ccc(NS(=O)(=O)c3ccccc3Cl)c(F)c2)cc2cnc(N[C@H]3CC4C[C@@H](N)CC4C3)nc12` (some centres unmarked) [Compound 84, N-(4-(2-(((2s,5s)-5-aminoocta-hydropentalen-2-yl)amino)-8-ethylquinazolin-6-yl)-2-fluorophenyl)-2-chlorobenzene-sulfonamide], the pEC50 was 7.30 to 8.30.

As for `N[C@H]1CC2C[C@@H](Nc3ncc4cc(-c5ccc(NS(=O)(=O)c6ccccc6Cl)c(F)c5)ccc4n3)CC2C1` (some centres unmarked) [Compound 85, N-(4-(2-(((2s,5s)-5-aminoocta-hydropentalen-2-yl)amino)quinazolin-6-yl)-2-fluorophenyl)-2-chlorobenzene-sulfonamide], the pEC50 is 5.00 to 7.00.

On to `NC12CCC(Nc3ncc4cc(-c5ccc(NS(=O)(=O)c6ccccc6Cl)c(F)c5)ccc4n3)(CC1)C2` [Compound 86, N-(4-(2-((4-aminobicyclo[2.2. 1]heptan-1-yl)amino)quinazolin-6-yl)-2-fluorophenyl)-2-chlorobenzene-sulfonamide], for which the pEC50 was 7.00 to 7.30. In the case of `CCc1cc(-c2ccc(NS(=O)(=O)c3ccccc3Cl)c(F)c2)cc2cnc(NC34CCC(N)(CC3)CC4)nc12` [Compound 87, N-(4-(2-((4-aminobicyclo[2.2. 2]octan-1-yl)-amino)-8-ethylquinazolin-6-yl)-2-fluorophenyl)-2-chlorobenzene-sulfonamide] it was more than 8.30; in that of `CCc1cc(-c2ccc(NS(=O)(=O)c3ccccc3Cl)c(F)c2)cc2cnc(N[C@H]3CC[C@H](N4CCCC4)CC3)nc12` [Compound 88, 2-chloro-N-(4-(8-ethyl-2-(((lr,4r)-4-(pyrrolidin-1-yl)cyclohexyl)amino)quinazolin-6-yl)-2-fluorophenyl) benzene-sulfonamide], more than 8.30.

With `N[C@H]1CC[C@H](Nc2ncc3cc(-c4nnc(NS(=O)(=O)c5ccccc5Cl)s4)ccc3n2)CC1` [Compound 89, N-(5-(2-(((lr,4r)-4-aminocyclohexyl)amino)quinazolin-6-yl)-1,3,4-thiadiazol-2-yl)-2-chlorobenzene-sulfonamide], the negative logarithm of the EC50 (pEC50) was 5.00 to 7.00.

In the case of `Cc1cc2nc(N[C@H]3CC[C@H](N)CC3)ncc2cc1-c1ccc(NS(=O)(=O)c2ccccc2Cl)c(F)c1` [Compound 90, N-(4-(2-(((1r,4r)-4-aminocyclohexyl)amino)-7-methylquinazolin-6-yl)-2-fluorophenyl)-2-chlorobenzene-sulfonamide], the negative logarithm of the EC50 (pEC50) was 7.30 to 8.30. As for `CCc1cc(-c2cnc(NS(=O)(=O)c3ccccc3Cl)cc2OC)cc2cnc(N[C@H]3CC[C@H](N)CC3)nc12` [Compound 92, N-(5-(2-(((1r,4r)-4-aminocyclohexyl)amino)-8-ethylquinazolin-6-yl)-4-methoxypyridin-2-yl)-2-chlorobenzene-sulfonamide], the pEC50 is 5.00 to 7.00. The value for `CCc1cc(-c2cnc(NS(=O)(=O)c3ccccc3Cl)c(F)c2)cc2cnc(N[C@H]3CC[C@H](N(C)C)CC3)nc12` [Compound 95, 2-chloro-N-(5-(2-(((1r,4r)-4-(dimethylamino)cyclohexyl)amino)-8-ethylquinazolin-6-yl)-3-fluoropyridin-2-yl)benzenesulfonamide] was more than 8.30; that for `CCc1cc(-c2cc(F)c(NS(=O)(=O)c3ccccc3Cl)nc2C)cc2cnc(N[C@H]3CC[C@H](N(C)C)CC3)nc12` [Compound 97, 2-chloro-N-(5-(2-(((1r,4r)-4-(dimethylamino)cyclohexyl)amino)-8-ethylquinazolin-6-yl)-3-fluoro-6-methylpyridin-2-yl)benzenesulfonamide] was more than 8.30; that for `CCc1cc(-c2ncc(NS(=O)(=O)c3ccccc3Cl)nc2OC)cc2cnc(N[C@H]3CC[C@H](N)CC3)nc12` [Compound 98, N-(5-(2-(((1r,4)-4-aminocyclohexyl)amino)-8-ethylquinazolin-6-yl)-6-methoxypyrazin-2-yl)-2-chlorobenzenesulfonamide] was more than 8.30. Consider `CCc1cc(-c2ccc(NS(=O)(=O)c3ccccc3Cl)nc2OC)cc2cnc(N[C@H]3CC[C@H](N(C)C)CC3)nc12` [Compound 99, 2-chloro-N-(5-(2-(((1r,4r)-4-(dimethylamino)cyclohexyl)amino)-8-ethylquinazolin-6-yl)-6-methoxypyridin-2-yl)benzenesulfonamide], for which the pEC50 was more than 8.30. In the case of `COc1nc(NS(=O)(=O)c2ccccc2Cl)ccc1-c1cc2cnc(N[C@H]3CC[C@H](N(C)C)CC3)nc2cc1C` [Compound 108, 2-chloro-N-(5-(2-(((1r,4r)-4-(dimethylamino)cyclohexyl)amino)-7-methylquinazolin-6-yl)-6-methoxypyridin-2-yl)benzenesulfonamide] it was more than 8.30; in that of `CCc1cc(-c2ccc(NS(=O)(=O)c3ccccc3Cl)nc2OC)cc2cnc(N[C@H]3CC[C@H](NC)CC3)nc12` [Compound 116, 2-chloro-N-(5-(8-ethyl-2-(((1r,4r)-4-(methylamino)cyclohexyl)amino)quinazolin-6-yl)-6-methoxypyridin-2-yl)benzenesulfonamide], more than 8.30.

Source of the values: patent publication US12479818B2, “Treatment of fibrosis with IRE1 small molecule inhibitors” (Cornell University, priority 2019, dated 2025).
